In this assay the target is T1, NAD(+) hydrolase SARM1 (Homo sapiens, UniProt Q6SZW1).
T1 sequence (Q6SZW1 whole entry): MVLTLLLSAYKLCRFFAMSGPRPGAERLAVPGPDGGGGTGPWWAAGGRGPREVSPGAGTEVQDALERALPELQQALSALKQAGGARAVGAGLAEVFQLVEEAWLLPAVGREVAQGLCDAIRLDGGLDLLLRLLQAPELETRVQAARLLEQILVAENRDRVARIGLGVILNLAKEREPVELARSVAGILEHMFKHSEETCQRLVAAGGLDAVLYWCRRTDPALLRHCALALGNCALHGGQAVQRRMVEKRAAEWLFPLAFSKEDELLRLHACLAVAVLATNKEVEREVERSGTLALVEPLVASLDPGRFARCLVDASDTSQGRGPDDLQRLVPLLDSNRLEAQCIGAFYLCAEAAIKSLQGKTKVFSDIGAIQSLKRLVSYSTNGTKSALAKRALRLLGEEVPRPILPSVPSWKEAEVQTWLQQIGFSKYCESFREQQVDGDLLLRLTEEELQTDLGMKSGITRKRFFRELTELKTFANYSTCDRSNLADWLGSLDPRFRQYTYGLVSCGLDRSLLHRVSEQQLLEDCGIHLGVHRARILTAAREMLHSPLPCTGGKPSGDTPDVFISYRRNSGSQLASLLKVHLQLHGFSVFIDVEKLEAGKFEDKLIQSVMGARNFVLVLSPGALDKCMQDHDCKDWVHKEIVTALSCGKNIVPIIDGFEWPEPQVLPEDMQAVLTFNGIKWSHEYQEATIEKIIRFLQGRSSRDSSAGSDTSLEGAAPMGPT
The experiment in a line: Biochemical Assay of the Compounds. The method, then:
Preparation of full-length SARM1 (FL-SARM1) lysate: HEK293T cells (ATCC: CRL-3216) were grown on 150 mm TC-treated dishes to 80-90% confluency in complete DMEM (DMEM (Thermo Fisher: 11965175) supplemented with 10% HI-FBS (VWR: 10802-772), 1x Pen/Strep (Thermo Fisher: 15140122), 1x NEAA (Thermo Fisher: 1140050), 1x glutamax (Thermo Fisher: 35050061), and 1 mM sodium pyruvate (Thermo Fisher: 11360070)) at 37 °C and 5% CO2. One hour prior to transfection, the media was replaced with fresh, 37 °C complete DMEM (20 mL per one 150 mm dish) supplemented with additional 10mM glucose (Alfa Aesar AAJ60067EQE). Per one 150 mm dish, 30 µg FL-SARM1 (SEQ. ID.1; cloned in-house) plasmid was dissolved in 1 mL DMEM at ambient temperature and were mixed by inverting the tube 8-10 times.90 µL of GenJet™ in vitro DNA transfection reagent (Ver2) was dissolved in 1 mL DMEM at ambient temperature and were mixed by inverting the tube 8-10 times. The plasmid and transfection agent solutions were combined, mixed by 8-10 inversions and incubated for 10 minutes at ambient temperature.2 mL of this transfection mixture was added to each dish containing HEK293T cells as prepared above followed by a gentle mixing of 4-5 horizontal rotations. The dishes were incubated at 37 °C and 5% CO2 for 24 h. The dishes were removed from the incubator, the medium was aspirated and the cells were scraped off using cell scrapers in ice-cold 1x PBS (5 mL/dish, Thermo Fisher Scientific 10010023). The collected cells were centrifuged at 300 g for 5 minutes at 4 °C. The supernatant was aspirated and the pellet was frozen at -80 °C until needed. The cell pellet from 30 dishes was dissolved in 30 mL 1x PBS supplemented with 4 tablets of Complete, Mini EDTA-free protease inhibitor cocktail at 4 °C. This mixture was sonicated on ice for 10 minutes at 50% amplitude with a 1 second on/1 second off interval using a Model 120 sonicator (Thermo Fisher Scientific, FB120110). The lysate was centrifuged at 16000 g for 10 minutes at 4 °C.

For `Cc1ccc(NC(=O)N2C3CC(C)CC2C3)cc1C12CC(F)(C1)C2` (configuration not stated) [WO2025054369, Example 23], the IC50 was less than 1 µM. `Cc1nnc([C@@]23CCC[C@@H](C2)N3C(=O)Nc2ccc(Cl)c(C3CCC3)c2)o1` [WO2025054369, Example 59]: the IC50 worked out at 5.5 µM.

`Cc1ccc(NC(=O)N2C3CCCC2C3)cc1C1CCC1` [WO2025054369, Example 12] gave an IC50 of 5.5 µM.

The compound `C[C@@H]1C[C@@H]2C[C@H](C1)N2C(=O)Nc1ccc(Cl)c(N2CCNC2=O)c1` [WO2025054369, Example 96] had an IC50 of less than 1 µM.

`CC1CC2CC(C1)N2C(=O)Nc1ccc(Cl)c(C(C)(C)O)c1` (configuration not stated) [WO2025054369, Example 81] yielded an IC50 of 5.5 µM. In other words, the single-digit micromolar range. The same measure for `CC1CC2CC(C1)N2C(=O)Nc1ccc(Cl)c([C@H]2C[C@H](O)C2)c1` (some centres not stated) [WO2025054369, Example 36]: less than 1 µM; for `N#C[C@H]1CC[C@H]1c1cc(NC(=O)N2C3CCC2CC(C(F)(F)F)C3)ccc1Cl` (relative stereo; form 2) [WO2025054369, Example 45]: 5.5 µM.

Compound `Cc1ccc(NC(=O)N2C3CCCC2C3)cc1C1CC1` [WO2025054369, Example 22] returned an IC50 of 5.5 µM. `CC1CC2CC(C1)N2C(=O)Nc1ccc(Cl)c([C@@H]2CC[C@H]2C(F)F)c1` (some centres not stated) [WO2025054369, Example 51] had an IC50 of less than 1 µM.

Turning to `CC1CC2CC(C1)N2C(=O)Nc1ccc(Cl)c(N2CC(OCCN)C2)c1` (configuration not stated) [WO2025054369, Example 86], the IC50 is more than 10 µM. As for `Cc1ccc(NC(=O)N2C3CCCC2C3)cc1CC1CC1` [WO2025054369, Example 13], the IC50 turned out to be 5.5 µM. That is a single-digit micromolar value.

For the compound `Cc1ccc(NC(=O)N2C3CCCC2C3)cc1C1CC(=O)N(C)C1` (configuration not stated) [WO2025054369, Example 14], the IC50 is 5.5 µM. This lies in the single-digit micromolar range. For `CC1CC2CC(C1)N2C(=O)Nc1ccc(C(F)(F)F)c(N2CC(O)C2)c1` (configuration not stated) [WO2025054369, Example 90], the IC50 was less than 1 µM.

The compound `CC1CC2CC(C1)N2C(=O)Nc1ccc(Cl)c([C@@H]2CCC[C@H]2C#N)c1` (some centres not stated) [WO2025054369, Example 63] had an IC50 of less than 1 µM. On to `O=C(Nc1ccc(Cl)c([C@H]2C[C@@H](O)C2)c1)N1C2CC1CC(C(F)(F)F)C2` (some centres not stated) [WO2025054369, Example 43], for which the IC50 was less than 1 µM. `CC1CC2CC(C1)N2C(=O)Nc1ccc(Cl)c(C23CC(C2)C3)c1` (configuration not stated) [WO2025054369, Example 20] returned an IC50 of less than 1 µM. Compound `Cc1nnc([C@@]23C[C@@H](C)C[C@@H](C2)N3C(=O)Nc2ccc(Cl)c(N3CC(O)C3)c2)o1` [WO2025054369, Example 70] returned an IC50 of less than 1 µM. Compound `CC1CC2CC(C1)N2C(=O)Nc1ccc(Cl)c([C@@H]2CC[C@]2(C)O)c1` (some centres not stated) [WO2025054369, Example 46] had an IC50 of less than 1 µM.

Take `CC1CC2CC(C1)N2C(=O)Nc1ccc(Cl)c([C@H]2C[C@@H](F)C2)c1` (some centres not stated) [WO2025054369, Example 49]: the IC50 is less than 1 µM. `Cc1nnc(C23CC(C)CC(C2)N3C(=O)Nc2ccc(Cl)c(C3CCC3)c2)o1` (configuration not stated) [WO2025054369, Example 1] yielded an IC50 of less than 1 µM.

Compound `CC1(O)CC(c2cc(NC(=O)N3C4CC3CC(C(F)(F)F)C4)ccc2CN)C1` (configuration not stated) [WO2025054369, Example 73] had an IC50 of 5.5 µM. This counts as single-digit micromolar.

Compound `CC1CC2CC(C1)N2C(=O)Nc1ccc(Cl)c(C2CC(O)C2)c1` (configuration not stated) [WO2025054369, Example 78] gave an IC50 of less than 1 µM. The same measure for `Cc1nnc([C@@]23C[C@@H](C[C@@H](C(F)(F)F)C2)N3C(=O)Nc2ccc(Cl)c(C3CCC3)c2)o1` [WO2025054369, Example 68]: less than 1 µM; for `CC1CC2CC(C1)N2C(=O)Nc1ccc(Cl)c([C@@H]2CC[C@H]2n2ccnn2)c1` (relative stereo) [WO2025054369, Example 27]: less than 1 µM; for `C[C@@H]1C[C@@H]2C[C@H](C1)N2C(=O)Nc1ccc(Cl)c(N2CCOC2=O)c1` [WO2025054369, Example 94]: 5.5 µM. On to `C[C@@]1(O)CC[C@@H](c2cc(NC(=O)N3C4CC3CC(C(F)(F)F)C4)ccc2Cl)C1` (some centres not stated) [WO2025054369, Example 65], for which the IC50 was 5.5 µM. `COC(C)(C)c1cc(NC(=O)N2C3CC(C)CC2C3)ccc1Cl` (configuration not stated) [WO2025054369, Example 79] displayed an IC50 of 5.5 µM.

`CC1CC2CC(C1)N2C(=O)Nc1ccc(Cl)c([C@H]2CCC[C@@H]2C#N)c1` (some centres not stated) [WO2025054369, Example 62] returned an IC50 of less than 1 µM.

Compound `Cc1nnc(C23CC(C)CC(C2)N3C(=O)Nc2ccc(Cl)c([C@H]3CC[C@H]3C#N)c2)o1` (some centres not stated) [WO2025054369, Example 4] displayed an IC50 of less than 1 µM. The compound `CC1CC2CC(C1)N2C(=O)Nc1ccc(Cl)c(N2CC[C@@H](O)C2)c1` (some centres not stated) [WO2025054369, Example 87] had an IC50 of less than 1 µM. Compound `CC1CC2CC(C1)N2C(=O)Nc1ccc(Cl)c([C@H]2CC[C@H]2C(F)F)c1` (some centres not stated) [WO2025054369, Example 41] showed an IC50 of 5.5 µM. Take `Cc1nnc(C23CC(C)CC(C2)N3C(=O)Nc2ccc(C(F)(F)F)c(C3CC(F)(F)C3)c2)o1` (configuration not stated) [WO2025054369, Example 25]: the IC50 is less than 1 µM. In the case of `CC1CC2CC(C1)N2C(=O)Nc1ccc(Cl)c(C2CC(C)(OCCO)C2)c1` (configuration not stated) [WO2025054369, Example 74], the IC50 was less than 1 µM.

In the case of `Cc1nnc(C23CC(C)CC(C2)N3C(=O)Nc2ccc(Cl)c([C@H]3C[C@H]3C#N)c2)o1` (some centres not stated) [WO2025054369, Example 17], the IC50 is less than 1 µM. Take `N#C[C@H]1CC[C@H]1c1cc(NC(=O)N2C3CC2CC(C(F)(F)F)C3)ccc1Cl` (some centres not stated) [WO2025054369, Example 56]: the IC50 came to 5.5 µM. Regarding `CC1CC2CC(C1)N2C(=O)Nc1ccc(Cl)c([C@H]2C[C@H](F)C2)c1` (some centres not stated) [WO2025054369, Example 48], the IC50 is less than 1 µM. With `C[C@]1(O)CC[C@@H](c2cc(NC(=O)N3C4CC3CC(C(F)(F)F)C4)ccc2Cl)C1` (some centres not stated) [WO2025054369, Example 66], the IC50 was less than 1 µM. Regarding `CC1CC2CC(C1)N2C(=O)Nc1ccc(Cl)c(N2CC[C@H]2C#N)c1` (some centres not stated) [WO2025054369, Example 72], the IC50 was less than 1 µM.

Take `C[C@@]1(O)CC[C@H](c2cc(NC(=O)N3C4CC3CC(C(F)(F)F)C4)ccc2Cl)C1` (some centres not stated) [WO2025054369, Example 67]: the IC50 is less than 1 µM.

`CC1CC2CC(C1)N2C(=O)Nc1ccc(Cl)c([C@H]2CC[C@@H]2C(F)F)c1` (some centres not stated) [WO2025054369, Example 50] gave an IC50 of less than 1 µM.

Take `CC1CC2CC(C1)N2C(=O)Nc1ccc(Cl)c([C@@H]2CC[C@@H]2C(F)F)c1` (some centres not stated) [WO2025054369, Example 40]: the IC50 was less than 1 µM. `Cc1ccc(NC(=O)N2C3CC(C)CC2C3)cc1C(C)C#N` (configuration not stated) [WO2025054369, Example 5]: the IC50 is less than 1 µM. With `CC1CC2CC(C1)N2C(=O)Nc1ccc(Cl)c(N2CCC2CF)c1` (configuration not stated) [WO2025054369, Example 84], the IC50 was less than 1 µM. Regarding `CC1CC2CC(C1)N2C(=O)Nc1ccc(Cl)c(C2CC(=O)C2)c1` (configuration not stated) [WO2025054369, Example 77], the IC50 is less than 1 µM.

In the case of `Cc1ccc(NC(=O)N2C3CCCC2C3)cc1C1CN(C)C1` [WO2025054369, Example 15], the concentration for half-maximal inhibition (IC50) stood at 5.5 µM. `N#C[C@H]1CC[C@H]1c1cc(NC(=O)N2C3CC2CC(C(F)(F)F)C3)ccc1C(F)(F)F` (some centres not stated) [WO2025054369, Example 52] had an IC50 of 5.5 µM. In other words, the single-digit micromolar range. As for `CC1CC2CC(C1)N2C(=O)Nc1ccc(Cl)c([C@@H]2CC[C@@H]2n2nccn2)c1` (relative stereo) [WO2025054369, Example 30], the IC50 is less than 1 µM.

The record behind these values is BindingDB's records for patent WO2025054369 (NICO Therapeutics, 2025).
